Data from PubChem BioAssay (NCI).
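Briefly, cells in 96-well plates were exposed to five compound concentrations for 48 h, and endpoints were estimated by linear interpolation. TGI marks complete inhibition of growth.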

Columns and labels:
Test in all cases: NCI-60 cell line screen, 48 h
786-0 renal = test system: 786-0 renal
A498 renal = test system: A498 renal
A549 NSCLC = test system: A549 NSCLC
ACHN renal = test system: ACHN renal
CCRF-CEM leukemia = test system: CCRF-CEM leukemia
COLO 205 colon = test system: COLO 205 colon
EKVX NSCLC = test system: EKVX NSCLC
HCC-2998 colon = test system: HCC-2998 colon
HCT-116 colon = test system: HCT-116 colon
HCT-15 colon = test system: HCT-15 colon
HL-60(TB) leukemia = test system: HL-60(TB) leukemia
HOP-62 NSCLC = test system: HOP-62 NSCLC
HOP-92 NSCLC = test system: HOP-92 NSCLC
HS 578T breast = test system: HS 578T breast
HT29 colon = test system: HT29 colon
IGROV1 ovarian = test system: IGROV1 ovarian
K-562 leukemia = test system: K-562 leukemia
LOX IMVI melanoma = test system: LOX IMVI melanoma
M14 melanoma = test system: M14 melanoma
MALME-3M melanoma = test system: MALME-3M melanoma
MCF7 breast = test system: MCF7 breast
MDA-MB-231 breast = test system: MDA-MB-231 breast
MDA-MB-435 = test system: MDA-MB-435
MDA-N = test system: MDA-N
MOLT-4 leukemia = test system: MOLT-4 leukemia
NCI-H226 lung = test system: NCI-H226 lung
NCI-H23 lung = test system: NCI-H23 lung
NCI-H522 lung = test system: NCI-H522 lung
NCI/ADR-RES ovarian = test system: NCI/ADR-RES ovarian
OVCAR-3 ovarian = test system: OVCAR-3 ovarian
OVCAR-4 ovarian = test system: OVCAR-4 ovarian
OVCAR-5 ovarian = test system: OVCAR-5 ovarian
OVCAR-8 ovarian = test system: OVCAR-8 ovarian
PC-3 prostate = test system: PC-3 prostate
RPMI-8226 leukemia = test system: RPMI-8226 leukemia
RXF 393 renal = test system: RXF 393 renal
SF-295 CNS = test system: SF-295 CNS
SF-539 CNS = test system: SF-539 CNS
SK-MEL-2 melanoma = test system: SK-MEL-2 melanoma
SK-MEL-5 melanoma = test system: SK-MEL-5 melanoma
SK-OV-3 ovarian = test system: SK-OV-3 ovarian
SN12C renal = test system: SN12C renal
SR leukemia = test system: SR leukemia
T-47D breast = test system: T-47D breast
TK-10 renal = test system: TK-10 renal
U251 CNS = test system: U251 CNS
UACC-257 melanoma = test system: UACC-257 melanoma
UACC-62 melanoma = test system: UACC-62 melanoma
UO-31 renal = test system: UO-31 renal
CAKI-1 renal = test system: CAKI-1 renal
DU-145 prostate = test system: DU-145 prostate
KM12 colon = test system: KM12 colon
NCI-H460 lung = test system: NCI-H460 lung
SF-268 CNS = test system: SF-268 CNS
SK-MEL-28 melanoma = test system: SK-MEL-28 melanoma
SNB-19 CNS = test system: SNB-19 CNS
SNB-75 CNS = test system: SNB-75 CNS
SW-620 colon = test system: SW-620 colon

O=Cc1c2c(cc3c1CC1(C3)Cc3cc4c(c(C=O)c3C1)CCC4)CCC2
TGI (786-0 renal): > 100 µM
TGI (A498 renal): 84.7 µM
TGI (A549 NSCLC): 87.5 µM
TGI (ACHN renal): 43.6 µM
TGI (CCRF-CEM leukemia): 58.4 µM
TGI (COLO 205 colon): 57.4 µM
TGI (EKVX NSCLC): > 100 µM
TGI (HCC-2998 colon): > 100 µM
TGI (HCT-116 colon): 33.7 µM
TGI (HCT-15 colon): > 100 µM
TGI (HL-60(TB) leukemia): 55.7 µM
TGI (HOP-62 NSCLC): 51.4 µM
TGI (HOP-92 NSCLC): 56.5 µM
TGI (HS 578T breast): 80.5 µM
TGI (HT29 colon): > 100 µM
TGI (IGROV1 ovarian): > 100 µM
TGI (K-562 leukemia): 63.7 µM
TGI (LOX IMVI melanoma): 51.1 µM
TGI (M14 melanoma): > 100 µM
TGI (MALME-3M melanoma): 89.3 µM
TGI (MCF7 breast): > 100 µM
TGI (MDA-MB-231 breast): 70.1 µM
TGI (MDA-MB-435): > 100 µM
TGI (MDA-N): > 100 µM
TGI (MOLT-4 leukemia): 48.7 µM
TGI (NCI-H226 lung): > 100 µM
TGI (NCI-H23 lung): > 100 µM
TGI (NCI-H522 lung): > 100 µM
TGI (NCI/ADR-RES ovarian): > 100 µM
TGI (OVCAR-3 ovarian): > 100 µM
TGI (OVCAR-4 ovarian): 72.1 µM
TGI (OVCAR-5 ovarian): > 100 µM
TGI (OVCAR-8 ovarian): > 100 µM
TGI (PC-3 prostate): > 100 µM
TGI (RPMI-8226 leukemia): > 100 µM
TGI (RXF 393 renal): > 100 µM
TGI (SF-295 CNS): > 100 µM
TGI (SF-539 CNS): > 100 µM
TGI (SK-MEL-2 melanoma): 50.8 µM
TGI (SK-MEL-5 melanoma): > 100 µM
TGI (SK-OV-3 ovarian): > 100 µM
TGI (SN12C renal): > 100 µM
TGI (SR leukemia): 73 µM
TGI (T-47D breast): > 100 µM
TGI (TK-10 renal): 98.8 µM
TGI (U251 CNS): 38.4 µM
TGI (UACC-257 melanoma): > 100 µM
TGI (UACC-62 melanoma): 62.3 µM
TGI (UO-31 renal): 6.38 µM

CCOC(=O)/C=C(/C(=O)OCC)n1cc(C)c(=O)n(Cc2cn(CCCCOC(C)=O)nn2)c1=O
TGI (786-0 renal): > 100 µM
TGI (A549 NSCLC): 56.1 µM
TGI (ACHN renal): 16.7 µM
TGI (CAKI-1 renal): 6.46 µM
TGI (CCRF-CEM leukemia): 2.31 µM
TGI (COLO 205 colon): > 100 µM
TGI (DU-145 prostate): > 100 µM
TGI (EKVX NSCLC): 22.7 µM
TGI (HCC-2998 colon): 36.6 µM
TGI (HCT-116 colon): 65 µM
TGI (HCT-15 colon): > 100 µM
TGI (HOP-62 NSCLC): > 100 µM
TGI (HOP-92 NSCLC): 3.11 µM
TGI (HS 578T breast): 59 µM
TGI (HT29 colon): 20.5 µM
TGI (IGROV1 ovarian): 29.6 µM
TGI (K-562 leukemia): > 100 µM
TGI (KM12 colon): 29.5 µM
TGI (LOX IMVI melanoma): 49.5 µM
TGI (MCF7 breast): 42.2 µM
TGI (MDA-MB-231 breast): 65.4 µM
TGI (MDA-MB-435): 28.4 µM
TGI (MDA-N): > 100 µM
TGI (MOLT-4 leukemia): 24.9 µM
TGI (NCI-H226 lung): 37.1 µM
TGI (NCI-H23 lung): 31.9 µM
TGI (NCI-H460 lung): 34.1 µM
TGI (NCI-H522 lung): 4.53 µM
TGI (NCI/ADR-RES ovarian): 65.6 µM
TGI (OVCAR-3 ovarian): 33.4 µM
TGI (OVCAR-4 ovarian): 39.5 µM
TGI (OVCAR-5 ovarian): 41 µM
TGI (OVCAR-8 ovarian): 25.8 µM
TGI (PC-3 prostate): 40.3 µM
TGI (RPMI-8226 leukemia): 25.6 µM
TGI (RXF 393 renal): > 100 µM
TGI (SF-268 CNS): 38.7 µM
TGI (SF-295 CNS): > 100 µM
TGI (SF-539 CNS): 19.1 µM
TGI (SK-MEL-2 melanoma): 45.1 µM
TGI (SK-MEL-28 melanoma): 35.2 µM
TGI (SK-MEL-5 melanoma): > 100 µM
TGI (SK-OV-3 ovarian): > 100 µM
TGI (SN12C renal): 91.7 µM
TGI (SNB-19 CNS): 41.9 µM
TGI (SNB-75 CNS): 32.6 µM
TGI (SR leukemia): 62.4 µM
TGI (SW-620 colon): > 100 µM
TGI (T-47D breast): > 100 µM
TGI (TK-10 renal): 16.7 µM
TGI (U251 CNS): 45.3 µM
TGI (UACC-257 melanoma): 36.8 µM
TGI (UACC-62 melanoma): 30.5 µM
TGI (UO-31 renal): 28.3 µM
